Test results published in the SangsterLogP compilation.

Compound | logP
CC1=C(C(=O)O)N2C(=O)C(NC(=O)C(NC(=O)c3nn(-c4ccc(C)cc4)c(=O)[nH]c3=O)c3cccc(O)c3)C2SC1 (centres undefined) | 2.53
CC1=C(C(=O)O)N2C(=O)C(NC(=O)C(NC(=O)c3nn(-c4ccc(Cl)cc4Cl)c(=O)[nH]c3=O)c3ccccc3)C2SC1 (centres undefined) | 4.97
CC(=O)c1ccc(-n2nc(C(=O)NC(C(=O)NC3C(=O)N4C(C(=O)O)=C(C)CSC34)c3ccccc3)c(=O)[nH]c2=O)cc1 (centres undefined) | 2.71
CC1=C(C(=O)O)N2C(=O)C(NC(=O)C(NC(=O)c3nn(-c4ccc(F)c(Cl)c4)c(=O)[nH]c3=O)c3ccc(O)cc3)C2SC1 (centres undefined) | 3.1
COc1ccc(-n2nc(C(=O)NC(C(=O)NC3C(=O)N4C(C(=O)O)=C(C)CSC34)c3ccccc3)c(=O)[nH]c2=O)cc1 (centres undefined) | 3.87
CC1=C(C(=O)O)N2C(=O)C(NC(NC(=O)c3nn(-c4ccc(S(N)(=O)=O)cc4)c(=O)[nH]c3=O)c3ccc(O)cc3)C2SC1 (centres undefined) | -0.39
CCOc1ccc(-n2nc(C(=O)NC(C(=O)NC3C(=O)N4C(C(=O)O)=C(C)CSC34)c3ccccc3)c(=O)[nH]c2=O)cc1 (centres undefined) | 5.16
CC1=C(C(=O)O)N2C(=O)C(NC(=O)C(NC(=O)c3nn(-c4ccccc4)c(=O)[nH]c3=O)c3ccccc3)C2SC1 (centres undefined) | 3.19
CC1=C(C(=O)O)N2C(=O)C(NC(=O)C(NC(=O)c3nn(-c4ccc(Cl)cc4)c(=O)[nH]c3=O)c3ccccc3)C2SC1 (centres undefined) | 4.91

Other lines, results leading:

logP | Compound
3.15 | CC1=C(C(=O)O)N2C(=O)C(NC(=O)C(NC(=O)c3nn(-c4ccc([N+](=O)[O-])cc4)c(=O)[nH]c3=O)c3ccccc3)C2SC1 (centres undefined)
3.08 | CC1=C(C(=O)O)N2C(=O)C(NC(=O)C(NC(=O)c3nn(-c4ccc(Cl)cc4Cl)c(=O)[nH]c3=O)c3ccc(O)cc3)C2SC1 (centres undefined)
-0.04 | CC(=O)c1ccc(-n2nc(C(=O)NC(C(=O)NC3C(=O)N4C(C(=O)O)=C(C)CSC34)c3cccc(O)c3)c(=O)[nH]c2=O)cc1 (centres undefined)
1.26 | CC1=C(C(=O)O)N2C(=O)[C@@H](NC(=O)[C@H](NC(=O)c3nn(-c4ccccc4)c(=O)[nH]c3=O)c3ccc(O)cc3)[C@H]2SC1
4.8 | CC1=C(C(=O)O)N2C(=O)C(NC(=O)C(NC(=O)c3nn(-c4ccc(C)cc4)c(=O)[nH]c3=O)c3ccccc3)C2SC1 (centres undefined)
